Activity calls are given as the source filed them.
Legend:
[1] = HEK293T viability loss – cell-based, ATP luminescence, dry powder, Set6, cytotoxicity control, dose response (AID 743142); type: functional; details: HEK293
[2] = viability loss in A549 lung cancer cells – cell-based, CellTiter-Glo luminescence, dry powder, set 3, cytotoxicity control, dose response (AID 743146); type: functional
[3] = target: T1, Nuclear receptor subfamily 0 group B member 1 (Homo sapiens, UniProt P51843); experiment: Luminescence-based cell-based high throughput dose response assay for inhibitors of the orphan nuclear receptor subfamily 0, group B, member 1 (DAX1; NR0B1). [Related pubchem assays (depositor defined):AID504766, AID504790]; type: functional
T1 sequence (P51843 whole entry): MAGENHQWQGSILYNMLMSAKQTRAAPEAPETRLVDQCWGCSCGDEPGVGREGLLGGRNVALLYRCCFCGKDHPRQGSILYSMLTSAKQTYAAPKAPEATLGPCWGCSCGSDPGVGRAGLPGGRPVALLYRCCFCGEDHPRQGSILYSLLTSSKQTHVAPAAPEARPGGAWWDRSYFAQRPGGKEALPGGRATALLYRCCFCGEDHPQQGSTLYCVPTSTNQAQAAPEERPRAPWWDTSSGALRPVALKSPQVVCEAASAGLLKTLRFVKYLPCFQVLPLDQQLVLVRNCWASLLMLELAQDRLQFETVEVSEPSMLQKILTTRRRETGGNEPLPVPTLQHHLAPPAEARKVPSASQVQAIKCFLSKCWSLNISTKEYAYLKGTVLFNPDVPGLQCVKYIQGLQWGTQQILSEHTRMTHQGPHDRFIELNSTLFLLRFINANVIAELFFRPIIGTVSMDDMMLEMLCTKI

[4] = target: T1, Nuclear receptor subfamily 0 group B member 1; type: functional, cell-based
[5] = rescue of ΔF508 CFTR function, airway epithelium – human bronchial epithelial cells, plate reader, cherry-pick, two tests, dose response (AID 743267); type: functional, cell-based
[6] = viability loss in HepG2 hepatoma cells – cell-based, ATP luminescence, cherry-pick, activator set 2, cytotoxicity control, dose response (AID 1053143); type: functional
[7] = viability loss in human hepatoma cells – cell-based, CellTiter-Glo luminescence, cherry-pick, set 2, cytotoxicity control, dose response (AID 743395); type: functional
[8] = viability of uninfected HEp-2 cells – cell-based, HTS, cytotoxicity control for RSV inhibitor project, dose response (AID 2410); type: functional; details: human respiratory syncytial virus
[9] = target: Beta-galactosidase (Escherichia coli, UniProt Q8VNN2); experiment: Dose response counterscreen for EBI2 assay utilizing the enzyme, b-galactosidase.; type: functional
[10] = cells
[11] = cells; type: functional, cell-based
[12] = Luminescence-based cell-based high throughput dose response assay to identify activators of the DAF-12 from the parasite S. stercoralis (ssDAF-12).; type: functional
[13] = T. cruzi growth inhibition in host cells, dose response, cell-based, plate reader, dry powder, set 2 (AID 652275); type: functional
[14] = target: T2, Scavenger receptor class B member 1 (Mus musculus, UniProt Q61009); experiment: mouse SR-BI DiI-HDL transfer blockers – ldlA[mSR-BI] CHO cells, fluorescence plate reader, dry powder, set 9, dose response (AID 623880); type: functional, cell-based
[15] = target: T2, Scavenger receptor class B member 1; experiment: blockers of DiI-HDL lipid transfer via SR-BI – cell-based, ldlA[mSR-BI] CHO, DiI fluorescence, dry powder, set 10, dose response (AID 624029); type: functional
[16] = target: G2/mitotic-specific cyclin-B1 (Homo sapiens, UniProt P14635); experiment: Counterscreen assay for inhibitors of Wee1 degradation: dose response cell-based assay to identify inhibitors of cyclin B degradation. [Related pubchem assays: 1410, 1321 ]; type: functional
[17] = target: Sphingosine 1-phosphate receptor 2 (Homo sapiens, UniProt O95136); experiment: Dose Response Cell Based Assay for Antagonists of the S1P2 Receptor. [Related pubchem assays: 856, 736 ]; type: functional
[18] = target: Wee1-like protein kinase (Homo sapiens, UniProt P30291); experiment: Dose Response Cell-based Assay for Inhibitors of Wee1 Degradation. [Related pubchem assays: 1410, 1321 ]; type: functional
[19] = target: T3, Heat shock factor protein 1 (Mus musculus, UniProt P38532); experiment: decrease of HSF1-responsive luciferase luminescence – cell-based, NIH3T3, dose retest, confirmation (AID 2382); type: functional;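 note: NIH3T3 fibroblasts with HSF1-driven luciferase reporter stressed by proteasome inhibitor MG132; luminescence from HSF1-driven luciferase expression after 8 hours of MG132 stress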
T3 sequence (P38532 whole entry): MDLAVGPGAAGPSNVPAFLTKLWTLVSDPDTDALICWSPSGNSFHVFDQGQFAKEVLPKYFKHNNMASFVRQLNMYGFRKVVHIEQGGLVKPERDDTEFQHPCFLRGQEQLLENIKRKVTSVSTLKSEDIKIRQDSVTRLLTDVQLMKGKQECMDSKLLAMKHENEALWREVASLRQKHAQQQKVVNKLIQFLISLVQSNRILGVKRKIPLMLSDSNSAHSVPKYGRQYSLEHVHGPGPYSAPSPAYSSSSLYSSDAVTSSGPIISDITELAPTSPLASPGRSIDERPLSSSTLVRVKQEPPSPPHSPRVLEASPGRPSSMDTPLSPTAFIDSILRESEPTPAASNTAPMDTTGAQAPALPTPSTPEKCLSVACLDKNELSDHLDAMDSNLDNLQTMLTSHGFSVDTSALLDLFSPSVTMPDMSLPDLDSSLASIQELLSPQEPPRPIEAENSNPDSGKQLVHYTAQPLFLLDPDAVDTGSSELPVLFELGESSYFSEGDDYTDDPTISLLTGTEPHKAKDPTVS

[20] = HPDE-C7 pancreatic duct cell viability loss – fluorescence, HTS (AID 430); type: functional, cell-based; details: Homo sapiens
[21] = viability loss of HPDE-C7K cells – cell-based, fluorescence, HTS, primary screen (AID 431); type: functional; details: Homo sapiens
[22] = HEK-293T viability loss after treatment – luminescence, T-cell screen hits, cytotoxicity control for TCR NF-kB inhibitor project, dose response (AID 489026); type: functional, cell-based;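 note: cells exposed to compound about 14 hours before the viability readout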
[23] = system: INS1; experiment: INS-1E survival protection against cytokine death – cell-based, luminescence, retest, dose response (AID 449756); type: functional; details: Rattus norvegicus;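 note: cell death triggered by IL-1 beta plus TNF-alpha plus IFN-gamma mixture; protective hits raise ATP signal compared with cytokine alone wells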
[24] = activation of miR-122 Renilla sensor silencing – cell-based, Huh7 psiCHECK-miR122, Renilla luciferase, cherry-picked, dose response (AID 651956); type: functional;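 note: huh7 hepatoma cells stably carrying a psiCHECK-2 miR-122 sensor plasmid; renilla luciferase signal reporting endogenous miR-122 activity after 48 h compound exposure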
[25] = reduced cellular PGC1a acetyl-lysine signal – cell-based, cherry-picked samples, dose response (AID 720514); type: functional;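 note: potency may reflect raised or lowered acetylation signal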
[26] = general mammalian cell viability loss – inhibitor set, cherry-pick, set 2, cytotoxicity control for miR-122 modulator project, dose response (AID 720697); type: functional, cell-based
[27] = general mammalian cell viability loss – activator set, cherry-pick, cytotoxicity control for miR-122 modulator project, dose response (AID 720690); type: functional, cell-based;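 note: HEK293T human cells scored for general mammalian cytotoxicity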
[28] = target: Major prion protein (Homo sapiens, UniProt P04156); type: functional, cell-based
[29] = cells; remark: listed apart in the source
[30] = viability loss in A549 lung cancer cells – cell-based, cherry-picks, […], cytotoxicity control, dose response (AID 1053119); type: functional
[31] = blockers of FN fibrillogenesis by fibroblasts – AH1F cells, Alexa488-FN fluorescence, cherry-picks, dose response (AID 1035475); type: functional, cell-based
[32] = target: T4, Bcl-2-related protein A1 (Mus musculus, UniProt Q07440); type: functional;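 note: confirmatory dose–response counterscreen on Bfl-1, used to check hits from a UBC13 polyubiquitin inhibitor campaign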
T4 sequence (Q07440 whole entry): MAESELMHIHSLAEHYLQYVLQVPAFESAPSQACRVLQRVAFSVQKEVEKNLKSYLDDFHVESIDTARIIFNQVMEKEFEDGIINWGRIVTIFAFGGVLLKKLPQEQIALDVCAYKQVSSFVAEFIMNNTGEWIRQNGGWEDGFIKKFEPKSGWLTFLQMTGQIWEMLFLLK

[33] = target: T5, Ubiquitin-conjugating enzyme E2 N (Homo sapiens, UniProt P61088); type: functional
T5 sequence (P61088 whole entry): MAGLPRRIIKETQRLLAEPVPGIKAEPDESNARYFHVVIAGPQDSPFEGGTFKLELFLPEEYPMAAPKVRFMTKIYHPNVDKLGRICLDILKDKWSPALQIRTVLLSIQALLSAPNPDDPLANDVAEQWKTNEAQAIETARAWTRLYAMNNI

[34] = target: T5, Ubiquitin-conjugating enzyme E2 N; type: functional; remark: listed apart in the source
[35] = target: Arf-GAP with SH3 domain, ANK repeat and PH domain-containing protein 1 (Homo sapiens, UniProt Q9ULH1); type: functional;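 note: biochemical fluorescence polarization dose–response screen measuring inhibition of ASAP1; ASAP1 GAP domain stimulating GTP hydrolysis by truncated human ARF1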
[36] = viability loss in HepG2 hepatoma cells – cell-based, cherry-picks, set 5, cytotoxicity control, dose response (AID 1053118); type: functional
[37] = viability loss in HEK293 kidney cells – cell-based, cherry-picks, set 5, cytotoxicity control, dose response (AID 1053117); type: functional
[38] = HGIII-sPLA2 enzyme inhibition potency – biochemical, QFRET, IC50, dose response (AID 743457);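 note: green fluorescence rise as the enzyme cleaves BODIPY PC-A2 in liposomes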
[39] = cells; type: functional, cell-based; remark: listed apart in the source
[40] = target: T6, Trace amine-associated receptor 1 (Homo sapiens, UniProt Q96RJ0); experiment: Fluorescence-based cell-based high throughput dose response assay to identify agonists of the human trace amine associated receptor 1 (TAAR1).; type: functional
[41] = target: T6, Trace amine-associated receptor 1; experiment: Counterscreen for agonists of the human trace amine associated receptor 1 (hTAAR1): Fluorescence-based cell-based high throughput dose response assay to identify hTAAR1 agonist that also desensitize TAAR1 receptor response.; type: functional
[42] = cells; type: functional, cell-based; remark: listed apart in the source
[43] = target: Beta-lactamase (Salmonella choleraesuis (strain SC-B67), UniProt Q5J463); experiment: Epi-absorbance-based counterscreen for selective VIM-2 inhibitors: dose response biochemical high throughput screening assay to identify inhibitors of TEM-1 serine-beta-lactamase.
[44] = target: T7, Beta-lactamase (Pseudomonas aeruginosa, UniProt Q79MP6); experiment: inhibition of IMP-1 beta-lactamase activity – biochemical, epi-absorbance, selectivity assay for VIM-2 inhibitor project, dose response (AID 1920)
[45] = target: T7, Beta-lactamase; experiment: […] counterscreen for selective VIM-2 inhibitors: dose response biochemical high throughput screening assay to identify inhibitors of IMP-1 metallo-beta-lactamase.
[46] = target: Potassium channel subfamily K member 9 (Homo sapiens, UniProt Q9NPC2); experiment: KCNK9 flux blockade, concentration-response – cell-based, FluxOR thallium flux, selectivity assay for TASK1 inhibitor project, SAR follow-up (AID 652211); type: functional;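 note: potency is for inhibitors of the channel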
[47] = target: Potassium channel subfamily K member 3 (Rattus norvegicus, UniProt O54912); experiment: SAR analysis for the identification of selective inhibitors of the two-pore domain potassium channel TASK1(KCNK3):Automated Electrophysiology.; type: functional
[48] = cytotoxicity in MITF-independent A375 cells – cell-based, CellTiter-Glo luminescence, dry powder, set 4, counter-screen for MITF inhibitor project, dose response (AID 624364); type: functional; details: A-375;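 note: A375 melanoma cells are MITF independent so this is a counter screen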
[49] = viability loss in MITF-independent A375 cells – cell-based, CellTiter-Glo luminescence, dry powder, set 2, counter-screen for MITF inhibitor project, dose response (AID 624489); type: functional; details: A-375;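 note: actives are compounds lowering A375 viability meaning general cytotoxicity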

O=C(CCNC(=O)c1ccc(Cl)c(Cl)c1)N[C@@H]1CCCc2ccccc21
AC50 [1]: 3.34 µM (active) | AC50 [2]: 26 µM (active)

O=C(CCCCCCC(=O)Nc1ccccc1)NO [VORINOSTAT]
IC50 [3]: > 67.6 µM (inactive) | IC50 [4]: 0.747 µM (active) | AC50 [5]: 0.933 µM (active) | AC50 [6]: 1.75 µM (active) | AbsAC35_uM [7]: 0.468 µM

COc1ccc(-c2cc3nc(-c4ccccc4)cc(N4CCC(O)CC4)n3n2)cc1
CC50 [8]: 17 µM (active) | IC50 [9]: > 80 µM (inactive) | IC50 [10]: 34.9 µM (active)

C(=Cc1c[nH]c2ccccc12)c1ccc2ccccc2n1
IC50 [11]: > 67.5 µM (inactive) | IC50 [4]: 10.3 µM (inactive) | IC50 [12]: > 67.5 µM (inactive)

CN(C)C(=O)c1cccc(-c2ccc([C@H]3[C@@H](CO)N4CCCCN(C(=O)C5CCC5)C[C@@H]34)cc2)c1
AC50 [13]: 1.06 µM (active)

C[C@@H]1CN([C@H](C)CO)C(=O)c2cc(NC(=O)C3CCCCC3)ccc2O[C@H]1CN(C)S(=O)(=O)c1ccc(Cl)cc1
AC50 [14]: 0.0686 µM (active) | AC50 [15]: 0.0616 µM (active)

O=S(=O)(C/C(=C/CO)S(=O)(=O)c1ccccc1)c1ccccc1
EC50 [16]: > 5.53 µM (active) | IC50 [17]: 3.07 µM (active) | EC50 [18]: > 5.53 µM (active) | EC50 [19]: 4.31 µM (active) | EC50 [20]: 1.92 µM (active) | EC50 [21]: 2.5 µM (active) | IC50 [22]: 67.1 µM (inactive) | AC50 [23]: 9.58 µM (active) | AC50 [24]: 6.77 µM (active) | AC50 [25]: 3.28 µM (active) | AC50 [26]: 4.09 µM (active) | AC50 [27]: 4.73 µM (active) | IC50 [28]: 9.14 µM (active) | IC50 [29]: 42.9 µM (inactive)

COc1ccc(Cl)cc1NC(=O)CSc1nc(Nc2ccccc2)nc(N2CCOCC2)n1
AC50 [30]: > 52 µM (inactive) | AC50 [31]: 64.2 µM (active)

COCCN=C(S)N=Nc1c(O)[nH]c2ccc([N+](=O)[O-])cc12
IC50 [32]: > 20 µM (inactive) | IC50 [33]: 6.15 µM (active) | IC50 [34]: 1.52 µM (active) | IC50 [35]: 26.8 µM (inactive)

O=S(=O)(c1ccccc1F)N1CC[C@@H]2[C@@H](CO)Nc3ccc(-c4cccc(F)c4)cc3[C@@H]21
AC50 [36]: 32.6 µM (active) | AC50 [37]: > 52 µM (inactive) | AC50 [31]: 39.9 µM (active)

Cc1ccc(NC(S)=NNC(=O)CSc2nnc(-c3ccc(Cl)cc3)n2C2CCCCC2)cc1
IC50 [38]: > 40.6 µM (inactive)

CN1CCNC(=O)C1CC(=O)NCCc1ccccc1F (stereo unspecified)
IC50 [39]: > 29.9 µM (inactive) | EC50 [40]: 2.49 µM (active) | IC50 [41]: 6.6 µM (active) | EC50 [42]: > 29.9 µM (inactive)

Cc1cccc(-n2c(C)nnc2S)c1C
IC50 [43]: > 59.6 µM (inactive) | IC50 [44]: > 59.6 µM (inactive) | IC50 [45]: > 59.6 µM (inactive)

COc1ccccc1C(=O)Nc1cccc(NC(=O)c2ccccc2OC)c1
IC50 [46]: 3.62 µM (active) | IC50 [47]: 0.03 µM (active)

C=CCNC1=C(N2CCN(C)CC2)C(=O)c2ccccc2C1=O
AC50 [48]: 34.4 µM (active) | AC50 [49]: 15.9 µM (active)

— ChEMBL document CHEMBL1201862, “PubChem BioAssay data set” (2004)
